Test results as given in patent US11053204B2, “Pyrimidinyloxy benzene derivatives as herbicides” (FMC Corporation, priority 2015, dated 2021).

How the values were obtained:
Assay type in all cases: in vivo
[1] = test system: soybean (Glycine max); experiment: Test C postemergence, plant response rating; details: for Plant response rating, Soybean: scale 0 to 100; for Soybean plant response rating: scale 0 to 100 (0 no effect, 100 complete control)
Procedure, shortened: (§1)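 Greenhouse plants rated visually against untreated controls 13–15 d after treatment, scale 0 = no effect to 100 = complete control. Postemergence sprays went onto potted plants 2–18 cm tall (1–4 leaves); preemergence sprays onto soil freshly sown in loam–sand or silt loam, chemicals formulated in non-phytotoxic solvent with surfactant.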

[2] = test system: kochia (Kochia scoparia); experiment: Test C postemergence, plant response rating; details: for Plant response rating, Kochia: scale 0 to 100; for Kochia plant response rating: scale 0 to 100 (0 no effect, 100 complete control)
Procedure, shortened: as §1

[3] = test system: ryegrass, Italian (Italian ryegrass, Lolium multiflorum); experiment: Test C postemergence, plant response rating; details: for Plant response rating, Ryegrass, Italian: scale 0 to 100; for Ryegrass, Italian plant response rating: scale 0 to 100 (0 no effect, 100 complete control)
Procedure, shortened: as §1

[4] = test system: foxtail, giant (giant foxtail, Setaria faberii); experiment: Test C postemergence, plant response rating; details: for Plant response rating, Foxtail, Giant: scale 0 to 100; for Foxtail, Giant plant response rating: scale 0 to 100 (0 no effect, 100 complete control)
Procedure, shortened: as §1

[5] = test system: oilseed rape (Brassica napus); experiment: Test C postemergence, plant response rating; details: for Plant response rating, Oilseed Rape: scale 0 to 100; for Oilseed Rape plant response rating: scale 0 to 100 (0 no effect, 100 complete control)
Procedure, shortened: as §1

[6] = test system: nutsedge, yellow (yellow nutsedge, Cyperus esculentus); experiment: Test C postemergence, plant response rating; details: for Plant response rating, Nutsedge, Yellow: scale 0 to 100; for Nutsedge, Yellow plant response rating: scale 0 to 100 (0 no effect, 100 complete control)
Procedure, shortened: as §1

[7] = test system: lambsquarters (Chenopodium album); experiment: Test C postemergence, plant response rating; details: for Plant response rating, Lambsquarters: scale 0 to 100; for Lambsquarters plant response rating: scale 0 to 100 (0 no effect, 100 complete control)
Procedure, shortened: as §1

[8] = test system: barnyardgrass (Echinochloa crus-galli); experiment: Test C postemergence, plant response rating; details: for Plant response rating, Barnyardgrass: scale 0 to 100; for Barnyardgrass plant response rating: scale 0 to 100 (0 no effect, 100 complete control)
Procedure, shortened: as §1

[9] = test system: morningglory (Ipomoea coccinea); experiment: Test C postemergence, plant response rating; details: for Plant response rating, Morningglory: scale 0 to 100; for Morningglory plant response rating: scale 0 to 100 (0 no effect, 100 complete control)
Procedure, shortened: as §1

[10] = test system: wheat (winter wheat, Triticum aestivum); experiment: Test C postemergence, plant response rating; details: for Plant response rating, Wheat: scale 0 to 100; for Wheat plant response rating: scale 0 to 100 (0 no effect, 100 complete control)
Procedure, shortened: as §1

[11] = test system: corn (Zea mays); experiment: Test C postemergence, plant response rating; details: for Plant response rating, Corn: scale 0 to 100; for Corn plant response rating: scale 0 to 100 (0 no effect, 100 complete control)
Procedure, shortened: as §1

[12] = test system: chickweed (common chickweed, Stellaria media); experiment: Test C postemergence, plant response rating; details: for Plant response rating, Chickweed: scale 0 to 100; for Chickweed plant response rating: scale 0 to 100 (0 no effect, 100 complete control)
Procedure, shortened: as §1

[13] = test system: oat, wild (wild oat Avena fatua); experiment: Test C postemergence, plant response rating; details: for Plant response rating, Oat, Wild: scale 0 to 100; for Oat, Wild plant response rating: scale 0 to 100 (0 no effect, 100 complete control)
Procedure, shortened: as §1

[14] = test system: crabgrass, large (large crabgrass, Digitaria sanguinalis); experiment: Test C postemergence, plant response rating; details: for Plant response rating, Crabgrass, Large: scale 0 to 100; for Crabgrass, Large plant response rating: scale 0 to 100 (0 no effect, 100 complete control)
Procedure, shortened: as §1

[15] = test system: blackgrass (Alopecurus myosuroides); experiment: Test C postemergence, plant response rating; details: for Plant response rating, Blackgrass: scale 0 to 100; for Blackgrass plant response rating: scale 0 to 100 (0 no effect, 100 complete control)
Procedure, shortened: as §1

[16] = test system: kochia (Kochia scoparia); experiment: Test A preemergence, visual injury rating; details: 0 to 100 scale (0 no effect, 100 complete control)
Procedure, shortened: (§2)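 Scoring: eye-based comparison with untreated controls, 0 for no effect through 100 for complete control, at about day 10. Treatments: directed soil spray preemergence; foliar spray postemergence on 2–10 cm plants at the one- to two-leaf stage. Medium: loam soil with sand.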

[17] = test system: barnyardgrass (Echinochloa crus-galli); experiment: Test A preemergence, visual injury rating; details: 0 to 100 scale (0 no effect, 100 complete control)
Procedure, shortened: as §2

Compound: O=C(OCCC(F)(F)F)c1c(Br)cccc1Oc1ncc(Br)cn1 [Compound 33]
- Plant response rating, Soybean ([1]; 16 g ai/ha): 25
- Plant response rating, Soybean ([1]; 31 g ai/ha): 65
- Soybean plant response rating ([1]; 62 g ai/ha): 30
- Soybean plant response rating ([1]; 125 g ai/ha): 55
- Plant response rating, Kochia ([2]; 16 g ai/ha): 90
- Plant response rating, Kochia ([2]; 31 g ai/ha): 95
- Kochia plant response rating ([2]; 62 g ai/ha): 95
- Kochia plant response rating ([2]; 125 g ai/ha): 95
- Plant response rating, Ryegrass, Italian ([3]; 16 g ai/ha): 0
- Plant response rating, Ryegrass, Italian ([3]; 31 g ai/ha): 5
- Ryegrass, Italian plant response rating ([3]; 62 g ai/ha): 5
- Ryegrass, Italian plant response rating ([3]; 125 g ai/ha): 30
- Plant response rating, Foxtail, Giant ([4]; 16 g ai/ha): 5
- Plant response rating, Foxtail, Giant ([4]; 31 g ai/ha): 10
- Foxtail, Giant plant response rating ([4]; 62 g ai/ha): 10
- Foxtail, Giant plant response rating ([4]; 125 g ai/ha): 20
- Plant response rating, Oilseed Rape ([5]; 16 g ai/ha): 35
- Plant response rating, Oilseed Rape ([5]; 31 g ai/ha): 45
- Oilseed Rape plant response rating ([5]; 62 g ai/ha): 55
- Oilseed Rape plant response rating ([5]; 125 g ai/ha): 95
- Plant response rating, Nutsedge, Yellow ([6]; 16 g ai/ha): 5
- Plant response rating, Nutsedge, Yellow ([6]; 31 g ai/ha): 5
- Nutsedge, Yellow plant response rating ([6]; 62 g ai/ha): 5
- Nutsedge, Yellow plant response rating ([6]; 125 g ai/ha): 10
- Plant response rating, Lambsquarters ([7]; 16 g ai/ha): 60
- Plant response rating, Lambsquarters ([7]; 31 g ai/ha): 70
- Lambsquarters plant response rating ([7]; 62 g ai/ha): 80
- Lambsquarters plant response rating ([7]; 125 g ai/ha): 90
- Plant response rating, Barnyardgrass ([8]; 16 g ai/ha): 5
- Plant response rating, Barnyardgrass ([8]; 31 g ai/ha): 5
- Barnyardgrass plant response rating ([8]; 62 g ai/ha): 10
- Barnyardgrass plant response rating ([8]; 125 g ai/ha): 25
- Plant response rating, Morningglory ([9]; 16 g ai/ha): 55
- Plant response rating, Morningglory ([9]; 31 g ai/ha): 65
- Morningglory plant response rating ([9]; 62 g ai/ha): 75
- Morningglory plant response rating ([9]; 125 g ai/ha): 65
- Plant response rating, Wheat ([10]; 16 g ai/ha): 0
- Plant response rating, Wheat ([10]; 31 g ai/ha): 0
- Wheat plant response rating ([10]; 62 g ai/ha): 0
- Wheat plant response rating ([10]; 125 g ai/ha): 5
- Plant response rating, Corn ([11]; 16 g ai/ha): 20
- Plant response rating, Corn ([11]; 31 g ai/ha): 25
- Corn plant response rating ([11]; 62 g ai/ha): 25
- Corn plant response rating ([11]; 125 g ai/ha): 30
- Plant response rating, Chickweed ([12]; 16 g ai/ha): 50
- Plant response rating, Chickweed ([12]; 31 g ai/ha): 55
- Chickweed plant response rating ([12]; 62 g ai/ha): 85
- Chickweed plant response rating ([12]; 125 g ai/ha): 85
- Plant response rating, Oat, Wild ([13]; 16 g ai/ha): 5
- Plant response rating, Oat, Wild ([13]; 31 g ai/ha): 10
- Oat, Wild plant response rating ([13]; 62 g ai/ha): 25
- Oat, Wild plant response rating ([13]; 125 g ai/ha): 30
- Plant response rating, Crabgrass, Large ([14]; 16 g ai/ha): 5
- Plant response rating, Crabgrass, Large ([14]; 31 g ai/ha): 5
- Crabgrass, Large plant response rating ([14]; 62 g ai/ha): 10
- Crabgrass, Large plant response rating ([14]; 125 g ai/ha): 15
- Plant response rating, Blackgrass ([15]; 16 g ai/ha): 5
- Plant response rating, Blackgrass ([15]; 31 g ai/ha): 5
- Blackgrass plant response rating ([15]; 62 g ai/ha): 10
- Blackgrass plant response rating ([15]; 125 g ai/ha): 20
- Kochia plant response rating ([16]; 125 g ai/ha): 60
- Kochia plant response rating ([16]; 500 g ai/ha): 100
- Barnyardgrass plant response rating ([17]; 125 g ai/ha): 100
- Barnyardgrass plant response rating ([17]; 500 g ai/ha): 100
